For the assay, the system named is MDA-MB-231 human breast cancer cells. The assay can be described thus: Cell proliferation assay (CellTiter-Glo, 72 hours treatment). Conditions: Homo sapiens; MDA-MB-231 cells, 72 hours at 37° C., CellTiter-Glo; read-out: MDA-MB-231 cell proliferation assay (IC50). It is filed as cell-based. A digest of the protocol: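 IC50 categories: under 100 nM +++, 100–1000 nM ++, above 1000 nM +, derived by sigmoidal curve fitting of CellTiter-Glo luminescence. Cells plated at 2,500 per well, dosed the following day and exposed 72 h at 37 °C versus DMSO control.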
In general terms: ATP-based viability assays read luminescence as a measure of living cells.

Structures are written as SMILES.

For `CCN(CC)C[C@H]1[C@@H](O)[C@@]2(O)c3c(cc(OC)nc3OC)O[C@@]2(c2ccc(C#N)cc2)[C@@H]1c1ccccc1` (racemic) [232F, Rac-4-((5aR,6S,7S,8R,8aS)-7-((diethylamino)methyl)-8,8a-dihydroxy-1,3-dimethoxy-6-phenyl-6,7,8,8a-tetrahydro-5aH-cyclopenta[4,5]furo[3,2-c]pyridin-5a-yl)benzonitrile], the IC50 was below 100 nM. Regarding `COc1nccc2c1[C@]1(O)[C@H](O)[C@H](CN(C)C)[C@@H](c3ccccc3)[C@]1(c1ccc(C(F)F)cc1)O2` (racemic) [148F, Rac-(5aR,6S,7S,8R,8aS)-5a-(4-(difluoromethyl)phenyl)-7-((dimethylamino)methyl)-1-methoxy-6-phenyl-5a,6,7,8-tetrahydro-8aH-cyclopenta[4,5]furo[3,2-c]pyridine-8,8a-diol], the IC50 is above 1000 nM. For `CNC[C@H]1[C@@H](O)[C@@]2(O)c3c(OC)cncc3O[C@@]2(c2ccc(C#N)cc2)[C@@H]1c1ccccc1` (racemic) [69F, Rac-4-((4bS,5R,6S,7S,7aR)-4b,5-dihydroxy-4-methoxy-6-((methylamino)methyl)-7-phenyl-4b,5,6,7-tetrahydro-7aH-cyclopenta[4,5]furo[2,3-c]pyridin-7a-yl)benzonitrile], the IC50 was in the range of 100 to 1000 nM. To `COc1nc(Cl)cc2c1[C@]1(O)[C@H](O)[C@H](C(=O)O)[C@@H](c3ccccc3)[C@]1(c1ccc(Br)cc1)O2` (racemic) [295F, rac-(5aR,6S,7R,8R,8aS)-5a-(4-bromophenyl)-3-chloro-8,8a-dihydroxy-1-methoxy-6-phenyl-5a,7,8,8a-tetrahydro-6H-cyclopenta[4,5]furo[3,2-c]pyridine-7-carboxylic acid] belongs below 100 nM; to `COc1cncc2c1[C@]1(O)[C@H](O)[C@H](CNCCF)[C@@H](c3ccccc3)[C@]1(c1ccc(C#N)cc1)O2` (racemic) [259F, Rac-4-((4bS,5R,6S,7S,7aR)-6-(((2-fluoroethyl)amino)methyl)-4b,5-dihydroxy-4-methoxy-7-phenyl-4b,5,6,7-tetrahydro-7aH-cyclopenta[4,5]furo[2,3-c]pyridin-7a-yl)benzonitrile], 100 to 1000 nM.

In the case of `COC(=O)[C@@H]1[C@@H](c2ccccc2)[C@]2(c3ccc(Br)cc3)Oc3cc(Cl)cnc3[C@]2(O)[C@H]1C#N` (racemic) [49F, Rac-methyl (5aR,6S,7R,8R,8aR)-5a-(4-bromophenyl)-3-chloro-8-cyano-8a-hydroxy-6-phenyl-5a,7,8,8a-tetrahydro-6H-cyclopenta[4,5]furo[3,2-b]pyridine-7-carboxylate], the IC50 was 100 to 1000 nM. As for `NC(=S)[C@H]1[C@@H](O)[C@@]2(O)c3ncc(Cl)cc3O[C@@]2(c2ccc(Br)cc2)[C@@H]1c1ccccc1` (racemic) [28F, Rac-(5aR,6S,7R,8R,8aS)-5a-(4-bromophenyl)-3-chloro-8,8a-dihydroxy-6-phenyl-5a,7,8,8a-tetrahydro-6H-cyclopenta[4,5]furo[3,2-b]pyridine-7-carbothioamide], the IC50 is 100 to 1000 nM. Regarding `O[C@H]1C[C@@H](c2ccccc2)[C@]2(c3ccc(Br)cc3)Oc3cc(Cl)cnc3[C@]12O` (racemic) [130F, Rac-(5aR,6S,8S,8aS)-5a-(4-bromophenyl)-3-chloro-6-phenyl-5a,6,7,8-tetrahydro-8aH-cyclopenta[4,5]furo[3,2-b]pyridine-8,8a-diol], the IC50 was above 1000 nM. The value for `COc1cc2c(c(OC)n1)[C@]1(O)[C@H](O)[C@H](C(=O)N(C)C)[C@@H](c3ccccc3)[C@]1(c1ccc(Br)cc1)O2` (racemic) [229F, rac-(5aR,6S,7R,8R,8aS)-5a-(4-bromophenyl)-8,8a-dihydroxy-1,3-dimethoxy-N,N-dimethyl-6-phenyl-5a,7,8,8a-tetrahydro-6H-cyclopenta[4,5]furo[3,2-c]pyridine-7-carboxamide] was below 100 nM. `CN(C)C(=O)[C@H]1[C@@H](O)[C@@]2(O)c3ncc(C#N)cc3O[C@@]2(c2ccc(C#N)cc2)[C@@H]1c1ccccc1` (single isomer, unassigned) [2F]: the IC50 lay within 100 to 1000 nM. The value for `CN(C)C(=O)[C@H]1[C@@H](O)[C@@]2(O)c3c(C#N)cncc3O[C@@]2(c2ccc(C#N)cc2)[C@@H]1c1ccccc1` (racemic) [96F, Rac-(4bS,5R,6R,7S,7aR)-4-cyano-7a-(4-cyanophenyl)-4b,5-dihydroxy-N,N-dimethyl-7-phenyl-4b,6,7,7a-tetrahydro-5H-cyclopenta[4,5]furo[2,3-c]pyridine-6-carboxamide] was above 1000 nM. As for `COC(=O)C(C[C@H]1C(=O)[C@@]2(O)c3ncc(Cl)cc3O[C@@]2(c2ccc(Br)cc2)[C@@H]1c1ccccc1)C(=O)OC` (racemic) [46F, Rac-dimethyl 2-[[(5aR,6S,7R,8aR)-5a-(4-bromophenyl)-3-chloro-8a-hydroxy-8-oxo-6-phenyl-6,7-dihydrocyclopenta[4,5]furo[1,2-b]pyridin-7-yl]methyl]propanedioate], the IC50 is above 1000 nM. As to `N#Cc1ccc([C@@]23Oc4cc(Cl)cnc4[C@]2(O)[C@@H]2OC(=O)N[C@@H]2[C@H]3c2ccccc2)cc1` (racemic) [54F, Rac-4-((3aR,3bS,8aR,9R,9aR)-6-chloro-3b-hydroxy-2-oxo-9-phenyl-1,2,3a,3b,9,9a-hexahydro-8aH-oxazolo[4″,5″:4′,5′]cyclopenta[1′,2′:4,5]furo[3,2-b]pyridin-8a-yl)benzonitrile], the IC50 was in the range of 100 to 1000 nM. With `CNC[C@H]1[C@@H](O)[C@@]2(O)c3c(cc(C#N)nc3OC)O[C@@]2(c2ccc(C#N)cc2)[C@@H]1c1ccccc1` (racemic) [225F, Rac-(5aR,6S,7S,8R,8aS)-5a-(4-cyanophenyl)-8,8a-dihydroxy-1-methoxy-7-((methylamino)methyl)-6-phenyl-5a,7,8,8a-tetrahydro-6H-cyclopenta[4,5]furo[3,2-c]pyridine-3-carbonitrile], the IC50 is below 100 nM.

As for `N#Cc1ccc([C@@]23Oc4cc(Cl)cnc4[C@]2(O)[C@H](O)[C@H](S(=O)(=O)c2ccccn2)[C@H]3c2ccccc2)cc1` (racemic) [164F, Rac-4-((5aR,6S,7R,8S,8aS)-3-chloro-8,8a-dihydroxy-6-phenyl-7-(pyridin-2-ylsulfonyl)-6,7,8,8a-tetrahydro-5aH-cyclopenta[4,5]furo[3,2-b]pyridin-5a-yl)benzonitrile], the IC50 was in the range of 100 to 1000 nM.

Turning to `CNc1cc2c(c(OC)n1)[C@]1(O)[C@H](O)[C@H](CN(C)C)[C@@H](c3ccccc3)[C@]1(c1ccc(C#N)cc1)O2` (racemic) [150F, Rac-4-((5aR,6S,7S,8R,8aS)-7-((dimethylamino)methyl)-8,8a-dihydroxy-1-methoxy-3-(methylamino)-6-phenyl-6,7,8,8a-tetrahydro-5aH-cyclopenta[4,5]furo[3,2-c]pyridin-5a-yl)benzonitrile], the IC50 is below 100 nM. For the compound `COc1cncc2c1[C@]1(O)[C@H](O)[C@H](CNC3CC3)[C@@H](c3ccccc3)[C@]1(c1ccc(C#N)cc1)O2` (racemic) [244F, Rac-4-((4bS,5R,6S,7S,7aR)-6-((cyclopropylamino)methyl)-4b,5-dihydroxy-4-methoxy-7-phenyl-4b,5,6,7-tetrahydro-7aH-cyclopenta[4,5]furo[2,3-c]pyridin-7a-yl)benzonitrile], the IC50 was below 100 nM.

Source of the values: patent US10577378B2, “EIF4A-inhibiting compounds and methods related thereto” (eFFECTOR Therapeutics, Inc., priority 2015, dated 2020).
